# Test results published in ChEMBL document CHEMBL1152096 (Bioorg Med Chem Lett, 1992).
# Assays:
# [1] = target: T1, Muscarinic acetylcholine receptor M1 (Rattus norvegicus, UniProt P08482); test: Evaluated for inhibition of binding of [3H]pirenzepine to homogenized rat cerebral cortex membranes; format: cell membranes, Membrane
# T1 sequence (P08482 whole entry): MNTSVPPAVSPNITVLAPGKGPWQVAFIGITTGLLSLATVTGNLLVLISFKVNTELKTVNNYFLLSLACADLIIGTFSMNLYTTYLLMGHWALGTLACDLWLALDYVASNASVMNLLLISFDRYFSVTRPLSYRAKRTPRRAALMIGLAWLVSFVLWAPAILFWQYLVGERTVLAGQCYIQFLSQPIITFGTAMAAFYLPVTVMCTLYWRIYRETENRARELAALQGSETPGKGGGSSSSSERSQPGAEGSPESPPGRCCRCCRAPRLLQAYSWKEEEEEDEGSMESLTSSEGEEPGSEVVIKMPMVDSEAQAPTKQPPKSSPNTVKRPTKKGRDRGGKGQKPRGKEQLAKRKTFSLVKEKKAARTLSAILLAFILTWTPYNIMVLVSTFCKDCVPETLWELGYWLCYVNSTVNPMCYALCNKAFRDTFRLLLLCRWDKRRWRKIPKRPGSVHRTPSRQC
# Rattus norvegicus [2] = species: Rattus norvegicus; test: Evaluated for the muscarinic potency in depolarizations of rat superior cervical ganglion; format: functional
# Rattus norvegicus [3] = species: Rattus norvegicus; test: Evaluated for the muscarinic potency in rat hippocampal slice preparations; format: functional, Hippocampus
# Rattus norvegicus [4] = species: Rattus norvegicus; test: Evaluated for the percentage efficacy in rat hippocampal slice preparations; format: functional, Hippocampus
# Cavia porcellus [5] = species: Cavia porcellus; test: Evaluated for the muscarinic potency in guinea pig ileum contraction model; format: functional
# Cavia porcellus [6] = species: Cavia porcellus; test: Evaluated for the percent efficacy in guinea pig ileum contraction model; format: functional
# Rattus norvegicus [7] = species: Rattus norvegicus; test: Evaluated for the percentage efficacy in depolarizations of rat superior cervical ganglion; format: functional
# Rattus norvegicus [8] = species: Rattus norvegicus; test: Evaluated for the muscarinic potency in rat superior cervical ganglion; format: functional
# Rattus norvegicus [9] = species: Rattus norvegicus; test: Evaluated for the percentage efficacy in rat superior cervical ganglion; format: functional
Structure (SMILES),IC50 [1] [µM],Efficacy (Rattus norvegicus [2]) [%],pD2 (Rattus norvegicus [2]),pD2 (Rattus norvegicus [3]),Efficacy (Rattus norvegicus [4]) [%],pD2 (Cavia porcellus [5]),Efficacy (Cavia porcellus [6]) [%],Efficacy (Rattus norvegicus [7]) [%],pD2 (Rattus norvegicus [8]),Efficacy (Rattus norvegicus [9]) [%]
COC(=O)[C@@H]1C[C@@H]2C[C@H]1N(C)C2,3.89,70,4.4,5.9,33,<4,,,,
COC(=O)[C@H]1C[C@@H]2CN[C@H]1C2,2.57,47,5.2,<4,,5.2,94,,,
COC(=O)[C@@H]1C[C@H]2CN[C@@H]1C2,1.41,90,6.7,6,120,6,120,,,
COC(=O)C1CC2CC1N(C)C2 (racemic),2.82,82,5,5.4,39,4.2,58,,,
COC(=O)C1=CCCN(C)C1 [ARECOLINE],,,6.6,6.1,100,6.5,100,80,,
COC(=O)C1CC2CNC1C2 (racemic),1.95,57,6.3,5.5,103,6.2,91,,,
COC(=O)[C@H]1C[C@H]2C[C@@H]1N(C)C2,1.91,,,<4,,4.9,68,,5.9,71
